The values below come from patent US10456377B2, “Anesthetic comprising tetracaine and a vasoconstrictor for administration to a subject” (St. Renatus, LLC, priority 2009, dated 2019).

This experiment relates to maxillary dentition. The experiment is described as follows: Intranasal tetracaine HCl solution, anesthesia of the maxillary dentition by electric pulp testing (EPT). In kind it is in vivo, human. The following applies: nasal spray, tetracaine doses between 4 and 16 mg, 80 subjects. As to the method:
The purpose of this study was to identify an effective and safe dosage of an intranasally administered tetracaine hydrochloride solution for obtaining anesthesia of the maxillary dentition. Healthy human volunteers were administered a dose of tetracaine HCl delivered as a nasal spray using a BD Accuspray™ device. The administration of the local anesthetic varied by total dose, concentration, and volume, and it included single doses in a single nostril, split doses in the same nostril, and divided doses in both nostrils. Different techniques regarding direction of spray were also investigated.
The efficacy of tetracaine hydrochloride in 80 subjects was measured by monitoring pain levels via electric pulp testing (EPT). EPT testing was accomplished by passing a current through the tooth to be tested wherein the lowest level of current is a “0” and the highest level of current is an “80.” Subjects are exposed to an increasing amount of current (starting at 0 and ramping up to 80). If any pain was felt by the subject, the test was stopped and the EPT reading was recorded.
Subjects received tetracaine doses between 4 and 16 mg.

Molecules are shown by their SMILES. Counter-ions that a name gives are not always drawn.

As for `CCCCNc1ccc(C(=O)OCCN(C)C)cc1` [tetracaine HCl, 2-(dimethylamino)ethyl 4-(butylamino)benzoate], the “maxillary arch anesthesia, as indicated by an EPT score of 80” value was “did not result in maxillary arch anesthesia”.
